In assay [1] the target is T1, Vascular endothelial growth factor receptor 2 (Homo sapiens, UniProt P35968). Nature of the assay: VEGFR2 Kinase Assay: Biochemical KDR kinase assays were performed in 96 well microtiter plates that were coated overnight with 75 ug/well of poly-Glu-Tyr (4:1) in 10 mM Phosphate Buffered Saline (PBS), pH 7.4. The coated plates were washed with 2 mls per well PBS+0.05% Tween-20 (PBS-T), blocked by incubation with PBS containing 1% BSA, then washed with 2 mls per well PBS-T prior to starting the reaction. Reactions were carried out in 100 uL reaction volumes containing 2.7 uM ATP in kinase buffer (50 mM Hepes buffer pH 7.4, 20 mM MgCl2, 0.1 mM MnCl2 and 0.2 mM Na3VO4). Test compounds were reconstituted in 100% DMSO and added to the reaction to give a final DMSO concentration of 5%. Reactions were initiated by the addition 20 ul per well of kinase buffer containing 200-300 ng purified cytoplasmic domain KDR protein (BPS Bioscience, San Diego, Calif.). Following a 15 minute incubation at 30° C., the reactions were washed 2 mls per well PBS-T. 100 ul of a monoclonal anti-phosphotyrosine antibody-peroxidase conjugate diluted 1:10,000 in PBS-T was added to the wells for 30 minutes. Following a 2 mls per well wash with PBS-Tween-20, 100 ul of 0-Phenylenediamine Dihydrochloride in phosphate-citrate buffer, containing urea hydrogen peroxide, was added to the wells for 7-10 minutes as a colorimetric substrate for the peroxidase. The reaction was terminated by the addition of 100 ul of 2.5N H2SO4 to each well and read using a microplate ELISA reader set at 492 nm.
T1 sequence (P35968 whole entry): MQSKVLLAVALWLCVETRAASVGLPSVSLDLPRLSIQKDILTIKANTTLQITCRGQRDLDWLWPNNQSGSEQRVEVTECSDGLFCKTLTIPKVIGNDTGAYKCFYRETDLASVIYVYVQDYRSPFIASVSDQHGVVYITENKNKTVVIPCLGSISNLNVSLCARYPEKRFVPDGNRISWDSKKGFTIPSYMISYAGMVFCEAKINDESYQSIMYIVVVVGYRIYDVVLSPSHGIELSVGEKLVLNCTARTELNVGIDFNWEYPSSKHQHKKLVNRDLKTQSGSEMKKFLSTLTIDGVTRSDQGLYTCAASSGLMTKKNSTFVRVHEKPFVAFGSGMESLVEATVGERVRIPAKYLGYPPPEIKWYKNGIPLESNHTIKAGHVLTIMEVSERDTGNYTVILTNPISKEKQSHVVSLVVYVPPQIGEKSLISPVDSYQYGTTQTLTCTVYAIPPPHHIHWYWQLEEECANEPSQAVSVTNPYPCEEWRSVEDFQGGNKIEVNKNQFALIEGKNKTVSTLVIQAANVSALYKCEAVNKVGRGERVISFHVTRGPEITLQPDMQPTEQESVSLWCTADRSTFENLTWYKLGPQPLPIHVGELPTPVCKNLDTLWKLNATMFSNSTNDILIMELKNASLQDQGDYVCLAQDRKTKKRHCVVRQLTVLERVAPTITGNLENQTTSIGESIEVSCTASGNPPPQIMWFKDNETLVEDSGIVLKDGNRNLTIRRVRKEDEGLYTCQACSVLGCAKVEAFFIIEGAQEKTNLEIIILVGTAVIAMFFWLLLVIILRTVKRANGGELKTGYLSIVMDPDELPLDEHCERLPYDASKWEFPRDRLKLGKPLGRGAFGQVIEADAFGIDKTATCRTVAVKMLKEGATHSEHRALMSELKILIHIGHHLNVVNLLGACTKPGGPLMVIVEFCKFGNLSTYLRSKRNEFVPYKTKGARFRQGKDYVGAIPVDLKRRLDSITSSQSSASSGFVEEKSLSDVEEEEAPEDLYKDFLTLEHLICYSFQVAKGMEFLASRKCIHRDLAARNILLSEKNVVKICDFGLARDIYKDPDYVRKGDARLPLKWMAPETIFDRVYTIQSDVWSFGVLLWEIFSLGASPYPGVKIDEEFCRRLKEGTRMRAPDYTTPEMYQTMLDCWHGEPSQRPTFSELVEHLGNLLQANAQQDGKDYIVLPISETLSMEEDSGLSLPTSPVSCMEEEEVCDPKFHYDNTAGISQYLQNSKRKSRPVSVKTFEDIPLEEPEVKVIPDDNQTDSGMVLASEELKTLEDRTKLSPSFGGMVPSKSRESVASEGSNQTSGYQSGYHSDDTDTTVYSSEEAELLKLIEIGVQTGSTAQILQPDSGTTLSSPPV

Assay [2] addresses T2, Platelet-derived growth factor receptor beta (Homo sapiens, UniProt P09619). Nature of the assay: (§1) PDGFRbeta : Automated FLIPR (Fluorometric Imaging Plate Reader) technology was used to screen for inhibitors of PDGF-induced increases in intracellular calcium levels in fluorescent dye loaded endothelial cells. NHDF-Ad (Normal Human Dermal Fibroblasts, Adult; Lonza) were seeded in 384-well fibronectin coated black-walled plates overnight @ 37° C./5% CO2. Cells were loaded with calcium indicator Fluo-4 for 45 minutes at 37° C. Cells were washed 2 times (Elx405, Biotek Instruments) to remove extracellular dye. For screening, cells were pre-incubated with test agents for 30 minutes, at a single concentration (10 uM) or at concentrations ranging from 0.0001 to 10.0 uM followed by PDGF-BB stimulation (30 ng/mL). Changes in fluorescence at 516 nm were measured simultaneously in all 384 wells using a cooled CCD camera. Data were generated by determining max-min fluorescence levels for unstimulated, stimulated, and drug treated samples. The format is cell-based, Endothelial cell.

Assay [3] has as its target T1, Vascular endothelial growth factor receptor 2. The description is as §1, with “VEGFR2 Cellular Assay:” for “PDGFRbeta :”, “VEGF induced” for “PDGF-induced”, “HUVEC (human umbilical vein endothelial cells) (Clonetics)” for “NHDF-Ad (Normal Human Dermal Fibroblasts, Adult; Lonza)”, “VEGF165” for “PDGF-BB”, “(10” for “(30”. The format is cell-based, Endothelial cell.
Assay [4] addresses T2, Platelet-derived growth factor receptor beta. Nature of the assay: PDGFRbeta Kinase Assay: Biochemical PDGFRbeta kinase assays were performed in 96 well microtiter plates that were coated overnight with 75 ug of poly-Glu-Tyr (4:1) in 10 mM Phosphate Buffered Saline (PBS), pH 7.4. The coated plates were washed with 2 mls per well PBS+0.05% Tween-20 (PBS-T), blocked by incubation with PBS containing 1% BSA, then washed with 2 mls per wellPBS-T prior to starting the reaction. Reactions were carried out in 100 uL reaction volumes containing 36 uM ATP in kinase buffer (50 mM Hepes buffer pH 7.4, 20 mM MgCl2, 0.1 mM MnCl2 and 0.2 mM Na3VO4). Test compounds were reconstituted in 100% DMSO and added to the reaction to give a final DMSO concentration of 5%. Reactions were initiated by the addition 20 ul per well of kinase buffer containing 200-300 ng purified cytoplasmic domain PDGFR-b protein (Millipore). Following a 60 minute incubation at 30° C., the reactions were washed 2 mls per well PBS-T. 100 ul of a monoclonal anti-phosphotyrosine antibody-peroxidase conjugate diluted 1:10,000 in PBS-T was added to the wells for 30 minutes. Following a 2 mls per well wash with PBS-Tween-20, 100 ul of 0-Phenylenediamine Dihydrochloride in phosphate-citrate buffer, containing urea hydrogen peroxide, was added to the wells for 7-10 minutes as a colorimetric substrate for the peroxidase. […].

In ChEMBL document CHEMBL3886544, “Substituted dialkyl(oxido)-lambda4-sulfanylidene nicotinamide derivatives as kinase inhibitors” (2016) one finds IC50 data, which are given here for four compounds.

T2 sequence (P09619 whole entry): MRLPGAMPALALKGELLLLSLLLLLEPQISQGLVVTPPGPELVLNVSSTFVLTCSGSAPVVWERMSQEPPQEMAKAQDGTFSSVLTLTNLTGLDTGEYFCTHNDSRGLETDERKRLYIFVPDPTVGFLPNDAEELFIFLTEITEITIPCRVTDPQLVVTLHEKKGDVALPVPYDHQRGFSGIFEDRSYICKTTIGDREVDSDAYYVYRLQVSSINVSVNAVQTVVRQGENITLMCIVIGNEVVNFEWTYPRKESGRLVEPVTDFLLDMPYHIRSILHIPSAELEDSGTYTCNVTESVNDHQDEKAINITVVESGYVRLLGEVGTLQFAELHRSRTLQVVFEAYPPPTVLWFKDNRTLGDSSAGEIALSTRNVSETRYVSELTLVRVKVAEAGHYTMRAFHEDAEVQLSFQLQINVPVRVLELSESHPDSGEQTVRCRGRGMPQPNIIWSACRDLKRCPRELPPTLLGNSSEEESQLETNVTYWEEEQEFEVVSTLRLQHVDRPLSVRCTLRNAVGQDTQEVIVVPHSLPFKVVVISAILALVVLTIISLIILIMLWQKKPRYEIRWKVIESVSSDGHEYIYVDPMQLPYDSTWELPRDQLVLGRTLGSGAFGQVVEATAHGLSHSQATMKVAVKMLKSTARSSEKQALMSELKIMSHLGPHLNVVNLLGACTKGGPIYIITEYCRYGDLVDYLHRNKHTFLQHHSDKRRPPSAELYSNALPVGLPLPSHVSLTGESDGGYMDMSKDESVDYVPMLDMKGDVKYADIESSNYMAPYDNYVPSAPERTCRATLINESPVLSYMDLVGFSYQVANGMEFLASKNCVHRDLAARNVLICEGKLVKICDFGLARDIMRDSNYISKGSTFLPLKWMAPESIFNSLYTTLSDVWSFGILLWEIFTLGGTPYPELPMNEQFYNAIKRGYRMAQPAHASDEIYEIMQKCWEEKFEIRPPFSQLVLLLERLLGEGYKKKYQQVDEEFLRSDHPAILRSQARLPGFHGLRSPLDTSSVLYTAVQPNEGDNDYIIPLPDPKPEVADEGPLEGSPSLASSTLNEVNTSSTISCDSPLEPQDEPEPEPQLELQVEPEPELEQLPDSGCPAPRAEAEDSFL

With `Cc1ccoc1C(=O)Nc1cccc(C#Cc2cncc(C(=O)N=S(C)(=O)CCCO)c2)c1` (stereo not drawn), the figures for the 50% inhibitory concentration (IC50) in assay [1], in assay [2] and in assay [3] were 14 nM, 31 nM and 1 nM, respectively.
Take `Cc1ccoc1C(=O)Nc1cccc(C#Cc2cncc(C(=O)N=S(C)(=O)CCCN3CCN(CCOCCO)CC3)c2)c1` (stereo not drawn): the half-inhibitory concentration (IC50) in assay [1] was determined as 9 nM; in assay [3], 10 nM.
For `Cc1ccoc1C(=O)Nc1cccc(C#Cc2cncc(C(=O)N=[S@@](C)(=O)CCCO)c2)c1`, the results for the IC50 in assay [1] and in assay [4] were 3 nM and 18 nM, respectively.
`Cc1ccoc1C(=O)Nc1cccc(C#Cc2cc(C(=O)N=S(C)(=O)CC(=O)N3CC[C@H](O)C3)cnc2N)c1` (stereo partly drawn) yielded an IC50 in assay [1] of 3 nM.
